Assay results published in patent US20250360160A1, “NEW MEDICAL USE OF TAFOXIPARIN” (DILAFOR AB, priority 2022, published 2025).

Assays:
factor IIa = assay: antifactor IIa activity; format: biochemical; details: definition of tafoxiparin
anticoagulant activity = details: definition of DF01

factor IIa, sequence (P01008 33-464): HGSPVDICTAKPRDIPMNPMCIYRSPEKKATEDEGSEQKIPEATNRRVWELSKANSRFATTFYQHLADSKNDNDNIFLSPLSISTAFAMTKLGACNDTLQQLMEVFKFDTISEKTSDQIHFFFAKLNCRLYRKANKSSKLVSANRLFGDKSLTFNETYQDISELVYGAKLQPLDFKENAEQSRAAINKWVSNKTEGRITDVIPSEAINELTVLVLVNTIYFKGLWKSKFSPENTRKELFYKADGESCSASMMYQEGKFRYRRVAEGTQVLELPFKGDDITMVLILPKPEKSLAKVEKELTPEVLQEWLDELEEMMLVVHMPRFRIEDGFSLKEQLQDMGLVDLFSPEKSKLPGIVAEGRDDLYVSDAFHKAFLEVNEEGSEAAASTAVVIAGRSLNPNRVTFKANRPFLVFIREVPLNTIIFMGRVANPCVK

tafoxiparin
antifactor IIa activity (factor IIa): less than 10 IU/mg | anticoagulant activity (anticoagulant activity): essentially no anticoagulant activity
